Experimental data: PubChem BioAssay (NCI)
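A five-concentration, 48-hour dose response in 96-well plates underlies each endpoint, interpolated linearly between surrounding concentrations. GI50 = concentration required for 50% inhibition of growth. TGI is the concentration that stops growth completely.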

How the values were obtained:
Experiment in all cases: inhibition of tumour cell growth, NCI panel, 48 h
[1] = system: 786-0 renal
[2] = system: A498 renal
[3] = system: A549 NSCLC
[4] = system: ACHN renal
[5] = system: BT-549 breast
[6] = system: CAKI-1 renal
[7] = system: COLO 205 colon
[8] = system: DU-145 prostate
[9] = system: HCC-2998 colon
[10] = system: HCT-116 colon
[11] = system: HCT-15 colon
[12] = system: HL-60(TB) leukemia
[13] = system: HOP-62 NSCLC
[14] = system: HOP-92 NSCLC
[15] = system: HS 578T breast
[16] = system: HT29 colon
[17] = system: IGROV1 ovarian
[18] = system: K-562 leukemia
[19] = system: KM12 colon
[20] = system: LOX IMVI melanoma
[21] = system: M14 melanoma
[22] = system: MALME-3M melanoma
[23] = system: MCF7 breast
[24] = system: MDA-MB-231 breast
[25] = system: MDA-MB-435
[26] = system: MOLT-4 leukemia
[27] = system: NCI-H226 lung
[28] = system: NCI-H23 lung
[29] = system: NCI-H460 lung
[30] = system: NCI-H522 lung
[31] = system: NCI/ADR-RES ovarian
[32] = system: OVCAR-3 ovarian
[33] = system: OVCAR-4 ovarian
[34] = system: OVCAR-5 ovarian
[35] = system: OVCAR-8 ovarian
[36] = system: PC-3 prostate
[37] = system: RPMI-8226 leukemia
[38] = system: RXF 393 renal
[39] = system: SF-268 CNS
[40] = system: SF-295 CNS
[41] = system: SF-539 CNS
[42] = system: SK-MEL-2 melanoma
[43] = system: SK-MEL-28 melanoma
[44] = system: SK-MEL-5 melanoma
[45] = system: SK-OV-3 ovarian
[46] = system: SN12C renal
[47] = system: SNB-19 CNS
[48] = system: SNB-75 CNS
[49] = system: SR leukemia
[50] = system: SW-620 colon
[51] = system: T-47D breast
[52] = system: TK-10 renal
[53] = system: U251 CNS
[54] = system: UACC-257 melanoma
[55] = system: UACC-62 melanoma
[56] = system: UO-31 renal

## COc1ccc(C2C=C(c3ccc(OC)c(OC)c3)N=C3SC=CN32)c(Br)c1 (configuration not stated)
[1]
  GI50: 2.72 µM
  TGI: 8.22 µM
[2]
  GI50: 3.47 µM
  TGI: 17.1 µM
[3]
  GI50: 2.4 µM
  TGI: 7.86 µM
[4]
  GI50: 2 µM
  TGI: 4.33 µM
[5]
  GI50: 2.1 µM
  TGI: 5.71 µM
[6]
  GI50: 13.4 µM
  TGI: 33.8 µM
[7]
  GI50: 4.56 µM
  TGI: 16.4 µM
[8]
  GI50: 3.44 µM
  TGI: 11.6 µM
[9]
  GI50: 2.02 µM
  TGI: 3.71 µM
[10]
  GI50: 1.52 µM
  TGI: 3.25 µM
[11]
  GI50: 1.76 µM
  TGI: 5.13 µM
[12]
  GI50: 3.06 µM
  TGI: 23 µM
[13]
  GI50: 3.16 µM
  TGI: 11.1 µM
[14]
  GI50: 8.66 µM
  TGI: 38.3 µM
[15]
  GI50: 3.41 µM
  TGI: > 100 µM
[16]
  GI50: 2.02 µM
  TGI: 4.26 µM
[17]
  GI50: 2.25 µM
  TGI: 5.51 µM
[18]
  GI50: 2.82 µM
  TGI: > 100 µM
[19]
  GI50: 1.83 µM
  TGI: 3.5 µM
[20]
  GI50: 1.88 µM
  TGI: 3.74 µM
[21]
  GI50: 2.23 µM
  TGI: 5.32 µM
[22]
  GI50: 13.5 µM
  TGI: 32.6 µM
[23]
  GI50: 0.807 µM
  TGI: 2.24 µM
[24]
  GI50: 4.5 µM
  TGI: 21.3 µM
[25]
  GI50: 2.8 µM
  TGI: 10.5 µM
[26]
  GI50: 3.16 µM
  TGI: 30.6 µM
[27]
  GI50: 2.84 µM
  TGI: 25.5 µM
[28]
  GI50: 9.45 µM
  TGI: 27.3 µM
[29]
  GI50: 5.15 µM
  TGI: 25.8 µM
[30]
  GI50: 3.11 µM
  TGI: 11.7 µM
[31]
  GI50: 4.59 µM
  TGI: 61.2 µM
[32]
  GI50: 2.24 µM
  TGI: 4.91 µM
[33]
  GI50: 7.1 µM
  TGI: 49.4 µM
[34]
  GI50: 6.44 µM
  TGI: 28.4 µM
[35]
  GI50: 3.2 µM
  TGI: 17.1 µM
[36]
  GI50: 3.88 µM
  TGI: 41 µM
[37]
  GI50: 1.77 µM
  TGI: 5.98 µM
[38]
  GI50: 2.08 µM
  TGI: 3.98 µM
[39]
  GI50: 3.42 µM
  TGI: 14.3 µM
[40]
  GI50: 11.5 µM
  TGI: 26.9 µM
[41]
  GI50: 1.87 µM
  TGI: 4.18 µM
[42]
  GI50: 14.4 µM
  TGI: 29.8 µM
[43]
  GI50: 2.3 µM
  TGI: 5.62 µM
[44]
  GI50: 3.02 µM
  TGI: 10.1 µM
[45]
  GI50: 4.52 µM
  TGI: 16.7 µM
[46]
  GI50: 4.77 µM
  TGI: 21.2 µM
[47]
  GI50: 7.3 µM
  TGI: 21.6 µM
[48]
  GI50: 3.1 µM
  TGI: 14.3 µM
[49]
  GI50: 1.95 µM
  TGI: 4.79 µM
[50]
  GI50: 1.85 µM
  TGI: 3.77 µM
[51]
  GI50: 3.2 µM
  TGI: 11.5 µM
[52]
  GI50: 3.64 µM
  TGI: 15.3 µM
[53]
  GI50: 1.6 µM
  TGI: 3.24 µM
[54]
  GI50: 2.98 µM
  TGI: 12 µM
[55]
  GI50: 2.47 µM
  TGI: 7.06 µM
[56]
  GI50: 1.54 µM
  TGI: 3.77 µM
